Measured values as given in US20230241226A1, “COMPOUNDS FOR TARGETED DEGRADATION OF CARRIER PROTEINS AND USES THEREOF” (CeMM - Forschungszentrum für Molekulare Medizin GmbH, priority 2019, published 2023).
Residues, ends and D or L forms follow the SMILES beside them. *: point of attachment. Cbz = O=C(OCc1ccccc1)*

Experiments:
dTAG-HA SLCs = test: dTAG-driven SLC degradation, statements across SLCs (temporal control, chemical rescue); format: cell-based, human; conditions: HAP1; 0.5 µM dTAG7 12 or 18 hours; MLN4924 1 µM, pomalidomide 10 µM, bortezomib 1 µM, MG-132 1 µM, bafilomycin A1 2.5 µM
Method: (D)Chemical “rescue” of dTAG-driven degradation of SLCs. HAP1 cell lines expressing dTAG-HA SLC1A5 or dTAG-HA SLC38A9 were treated with 0.5 µM dTAG7 for 12 or 18 hours, respectively. These cells were also treated with chloroquine (CQ, 50 µM), bortezomib (bort., 1 µM), MG-132 (MG, 1 µM), MLN4924 (MLN, 1 µM), pomalidomide (poma., 10 µM), or bafilomycin A1 (bafi., 2.5 µM). SLC degradation was rescued by inhibiting CRL activity or the proteasome, but not by inhibiting the lysosome machinery.
Western blotting with antibodies against the HA-tag and the total protein mirrored the observed pattern.
(D) Chemical “rescue” of dTAG driven degradation. HAP1 cell lines expressing dTAGHA SLC2A3, 39A7, […], and MTCH2 were treated with 0.5 µM dTAG7 for 12 hours. A cell line expressing dTAG-HA SLC38A2 was treated with 0.5 µM dTAG7 for 18 hours. These cells were treated with MLN4924 (MLN, 1 µM), pomalidomide (poma., 10 µM), or bafilomycin A1 (bafi., 2.5 µM) to monitor the inhibition of degradation.
(§1) For immunoblotting, whole cell extracts were prepared using RIPA lysis buffer (25 mM Tris/HCl pH 7.6, 150 mM NaCl, 1% NP-40, 1% sodium deoxycholate, 0.1% SDS, EDTA-free protease inhibitor (Roche) and phosphatase inhibitors 2+3 (Sigma- Aldrich)). Cell extracts were incubated for 15 min on ice in 50 µL RIPA buffer. Lysates were cleared by centrifugation (20,000 g, 10 min, 4° C.). Protein extracts were quantified and normalized using the BCA assay (Thermo Scientific). Where indicated, cleared lysates where treated with the enzyme PNGase (NEB) to deglycosylate the proteins. Lämmli Sample Buffer 4x was added to protein extract samples without boiling. Cell lysates were run on SDS-polyacrylamide gel in tris-glycine running buffer and transferred to nitrocellulose membranes Amersham Protran 0.45 µm (GE Healthcare), according to standard methods. The membranes were incubated with the antibodies indicated below and visualized with horseradish peroxidase-conjugated secondary antibodies (described below) using the ECL Western blotting system (Thermo Scientific). The following antibodies were used: GAPDH (Santa Cruz, sc-365062), Actin (Cyoskeleton Inc., #AAN01), HA (Covance, cat #MMS-101R), HA (Cell Signaling, #3724), HA7-HRP (Sigma, H6533), HA (Roche, #11867423001), SLC9A1 (Santa Cruz, sc-136239), SLC2A1 (Cell Signaling, #12939), SLC38A1 (Cell Signaling, #36057). Secondary antibody for imaging goat anti-Rat IgG Alexa Fluor 488 (ThermoFisher, A11006). The following secondary antibodies were used for immunoblotting: goat anti-mouse HRP (115-035-003, Jackson ImmunoResearch) and goat anti-rabbit HRP (111-035-003, Jackson ImmunoResearch).
SLCs were ectopically expressed as fusions to a mutated FKBP domain, also known as the dTAG system. In brief, a dTAGed protein is amenable to degradation by specific chimeric degrader molecules (e.g. dTAG7/dTAG13) that simultaneously bind to the dTAG and the CRL4CRBN E3 ligase, inducing molecular proximity and ensuing degradation by the proteasome. Given that SLCs were expressed in all cellular compartments, the amenability of differentially located SLCs to targeted proteolysis was tested (FIG. 1A, upper graph). Each of the tested SLCs was stably expressed in HAP1 cells, and subcellular localization was assessed by immunofluorescence microscopy (FIG. 1B). In detail, SLCs located at the cell surface (SLC1A5, SLC38A1, SLC2A1, SLC2A3, SLC16A1, SLC4A4, SLC7A3), cell surface and vesicles (SLC38A2), lysosome (SLC38A9), Golgi (SLC35B2, SLC33A1), mitochondria (SLC25A26, SLC25A1, and MTCH2) and endoplasmic reticulum (SLC39A7, SLC30A9) were assayed. Cellular treatment with a specific degrader molecule (dTAG7 or dTAG13) led to identification of SLCs expressed at cell surface, endoplasmic reticulum and lysosome that were amenable to targeted degradation (FIGS. 1C, 5A). The dTAG could be placed on either N- or C-terminus of the SLC, if both face the cytoplasm (FIG. 5B), as exemplified by SLC2A3. […]

SLC9A1 = target: T1, SLC9A1 (Homo sapiens, UniProt P19634); test: Degradation of endogenous SLC9A1 (immunoblot); format: cell-based; conditions: WT KBM7; 0.5 µM d9A1-2 16 hours; bortezomib 0.25 µM, MG-132 1 µM, MLN4924 1 µM, pomalidomide 1 µM, bafilomycin A1 10 µM
T1 construct: endogenous in cells; host or cells: HAP1, KBM7 (WT and CRBN knockout)
T1 sequence (P19634 whole entry): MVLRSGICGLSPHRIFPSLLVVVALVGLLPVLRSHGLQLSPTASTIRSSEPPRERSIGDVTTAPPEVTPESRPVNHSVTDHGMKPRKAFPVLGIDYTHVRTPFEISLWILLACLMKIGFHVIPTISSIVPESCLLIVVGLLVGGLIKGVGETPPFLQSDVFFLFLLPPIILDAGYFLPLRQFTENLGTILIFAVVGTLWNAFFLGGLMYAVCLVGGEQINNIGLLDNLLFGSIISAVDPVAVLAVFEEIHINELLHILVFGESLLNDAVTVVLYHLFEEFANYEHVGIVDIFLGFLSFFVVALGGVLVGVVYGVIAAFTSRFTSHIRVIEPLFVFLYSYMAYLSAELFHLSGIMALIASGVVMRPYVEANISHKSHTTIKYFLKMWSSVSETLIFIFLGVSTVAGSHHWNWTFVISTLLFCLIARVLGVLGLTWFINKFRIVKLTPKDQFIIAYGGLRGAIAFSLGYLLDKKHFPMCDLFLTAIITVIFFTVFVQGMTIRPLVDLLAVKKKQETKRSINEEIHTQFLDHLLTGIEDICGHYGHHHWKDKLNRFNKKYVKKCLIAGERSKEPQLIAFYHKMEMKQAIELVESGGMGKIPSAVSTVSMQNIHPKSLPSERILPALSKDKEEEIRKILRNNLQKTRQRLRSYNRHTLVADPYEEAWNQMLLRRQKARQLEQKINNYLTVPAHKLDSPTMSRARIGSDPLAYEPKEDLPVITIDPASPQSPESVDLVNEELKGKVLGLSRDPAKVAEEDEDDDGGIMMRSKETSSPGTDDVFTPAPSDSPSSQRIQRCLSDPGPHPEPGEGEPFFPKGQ
Method: (B) HAP1 and KBM7 cells were treated with different concentrations of d9A1-2.
(C)Both WT and CRBN knockout KBM7 cell lines were treated with 1 µM d9A1-2 for 16 hours.
(D) Chemical “rescue” of d9A1-2 driven degradation. WT KBM7 cell lines were treated with 0.5 µM d9A1-2 for 16 hours. These cells were also treated with bortezomib (bort. 0.25 µM), MG-132 (MG, 1 µM), MLN4924 (MLN,1 µM), pomalidomide (poma., 1 µM), or bafilomycin A1 (bafi., 10 µM). All molecules, apart from bafilomycin, could rescue SLC9A1 from degradation.
(B) HAP1 cells were treated with a dose curve of the warhead, d9A1-1, d9A1-2, d9A1-3, d9A1-4, for 24 hours.
(C) KBM7 cells were treated with varying concentrations of d9A1-2.
HEK293T, LS180 were obtained from ATCC (Manassas, VA, USA), HAP1 WT, HAP1 -/-SLC38A2 (HZGHC001975c003), HAP1 -/-SLC38A9 (HZGHC000777c011) were obtained from Horizon Genomics. Other cell lines utilized here: CAKI (a gift of Georg Winter’s lab), SW620, SW480 (both a gift from Walter Berger’s lab, Medical University Vienna), LOVO, HCT15 (both a gift from Chris Gasche), KBM7 (a gift from Thijn Brummelkamp’s lab), KBM7 -/- CRBN was described in Mayor-Ruiz et al. Cells were cultured, according to the ATCC recommendation in DMEM, RPMI or IMDM medium (Gibco) supplemented with 10% (v/v) FBS and antibiotics (100 U/ml penicillin and […] streptomycin). Knock-in single cell clones of dTAG-HA SLC38A2 HAP1 cell line were generated as previously described. For starvation, culture media was replaced with media without amino acids or FBS.
as §1
MG132, Bortezomib, Pomalidomide were obtained from Selleckchem. MLN4924 was obtained from MedchemExpress. Bafilomycin was obtained from Enzo Life Sciences. dTAG13 was a generous gift from the Nathanael Gray laboratory, Dana Farber Cancer Institute. The d9A1 degrader series (warhead, d9A1-1 to d9A1-4) was synthesized by Wuxi AppTec. All chemicals were dissolved in DMSO (Sigma-Aldrich) and utilized at the concertation described in respective figures.

SMILES	effect of co-treatment on dTAG7 mediated SLC degradation (chemical rescue) (dTAG-HA SLCs)	effect of co-treatment on d9A1-2 driven SLC9A1 degradation (chemical rescue) (SLC9A1)
CC(C)C[C@@H](C=O)NC(=O)[C@H](CC(C)C)NC(=O)[C@H](CC(C)C)NC(=O)OCc1ccccc1 [MG132] (Cbz-Leu-Leu-Leu-aldehyde)	rescued SLCs degradation	rescued SLCs degradation
NS(=O)(=O)OC[C@@H]1C[C@@H](n2ccc3c(N[C@H]4CCc5ccccc54)ncnc32)C[C@@H]1O [MLN4924]	blocked	abrogated
CO/C1=C\C(C)=C\[C@@H](C)[C@@H](O)[C@@H](C)C/C(C)=C/C=C/[C@H](OC)[C@@H]([C@@H](C)[C@@H](O)[C@H](C)[C@@]2(O)C[C@@H](O)[C@H](C)[C@@H](C(C)C)O2)OC1=O [bafilomycin A1]	degradation appeared unaffected	–
CC(C)C[C@H](NC(=O)[C@H](Cc1ccccc1)NC(=O)c1cnccn1)B(O)O [bortezomib]	rescued SLCs degradation	rescued SLCs degradation
Nc1cccc2c1C(=O)N(C1CCC(=O)NC1=O)C2=O (stereo not drawn) [pomalidomide]	prevented measurable SLC degradation	blocked d9A1-2-induced degradation of SLC9A1
